Several values for one entry are separate records, joined by “and”; a condition that tells them apart may be missing. Equal values may be shown once. Read-outs that look alike come from different tables or passages of the source.
How the values were obtained:
Serotonin 5-HT2B = Serotonin 5-HT2B (Homo sapiens, UniProt P41595); assay: Eurofins Panlabs radioligand binding panel, serotonin 5-HT2B; details: for IC50: IC50, 10 half-log concentrations; for IC50 / Ki: 0.3 nM to 10 μM, duplicate; for Ki: 10 half-log concentrations
Chain of Serotonin 5-HT2B (P41595 whole entry): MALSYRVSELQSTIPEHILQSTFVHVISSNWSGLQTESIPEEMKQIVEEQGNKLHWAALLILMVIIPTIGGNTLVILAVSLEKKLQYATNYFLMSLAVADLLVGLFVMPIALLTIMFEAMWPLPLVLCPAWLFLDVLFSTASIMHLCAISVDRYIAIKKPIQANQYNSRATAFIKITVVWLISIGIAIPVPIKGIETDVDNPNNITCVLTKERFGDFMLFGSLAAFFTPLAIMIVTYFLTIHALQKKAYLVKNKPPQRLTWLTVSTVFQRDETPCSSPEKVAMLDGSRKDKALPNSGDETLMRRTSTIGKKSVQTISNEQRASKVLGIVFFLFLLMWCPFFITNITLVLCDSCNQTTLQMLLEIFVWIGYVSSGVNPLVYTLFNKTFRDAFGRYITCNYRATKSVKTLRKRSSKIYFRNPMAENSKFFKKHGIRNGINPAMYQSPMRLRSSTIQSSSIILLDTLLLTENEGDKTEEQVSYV

cortical neurons = assay: Neurite outgrowth in embryonic rat cortical neuron cultures; type: cell-based; details: 3 days
Excerpt: Female Wistar rats of 17 days gestation were killed by cervical dislocation and the fetuses (typically 6 to 8 in number) were removed from the uteri. Fetal brains were placed in ice-cold medium of Leibovitz (L15, Gibco, France). Cortex was dissected and meninges were carefully removed. The cortical neurons were dissociated by trypsinization (trypsin-EDTA, Gibco) in the presence of DNAse I (Roche, France). The reaction was stopped by addition of Dulbecco's Modified Eagle Medium (DMEM; Gibco) with 10% of fetal bovine serum (FBS; Gibco). The suspension was triturated with a 10-ml pipette and a 21-gauge needle syringe and centrifuged. The pellet of dissociated cells was resuspended in a medium consisting of Neurobasal (Gibco) supplemented with 2% B27 supplement (Gibco), 0.5 mM L-Glutamine (Gibco), and an antibiotic-antimycotic mixture. Viable cells were counted in a Neubauer cytometer and cells were seeded in 96-well plates (Costar) precoated with poly-L-lysine at 10,000 cells/well. […] Stock solutions were prepared in sterile water at 10 mM and stored at −20° C. until used. Further dilutions were prepared in culture in the medium on the day of the treatment. 0.1% Sterile water was present in all tested conditions.
The experimental protocol was performed in two independent cultures (i.e., from two different pregnant rats). For each culture, each condition was tested in sextuplet (6 wells per condition per culture for a total of 12 wells per condition). […] After three days of plating and compound treatment (Day 3), cultures were fixed with paraformaldehyde in phosphate buffered saline at 4° C. (PBS, 4%, Sigma). All subsequent steps were performed at room temperature. Cells were successively permeabilized for 30 minutes using 0.1% triton, saturated with PBS containing 3% bovine serum albumin (BSA) and incubated for 1 hour with anti-beta III tubulin antibody (T5168, Sigma). […] Finally, nuclei were stained with 4′-6-diamidino-2-phenylindole (DAPI). After rinsing the cells with PBS, the plate was imaged and neurite networks were examined and analyzed using a High-Content Screening platform (CellInsight CXS, Thermo Scientific) with integrated Photometrics high-resolution fluorescent camera, Olympus objective (10×) and HCS Studio Cell Analysis Software. Approximately 2,000 neurons per well were analyzed using a validated cortex neuron outgrowth algorithm that utilizes parameters optimized for analysis of embryonic rat cortical neuron cultures. The HCS Studio Cell Analysis Software output included values for neurite total count (#), neurite total length (μm) and total number of branch points (#) for each of the 6 wells per culture. The evaluation of neurite outgrowth was performed using the average number of neurites per neuron (#), the average of total neurite length per neuron (μm) and the average number of branch points per neuron (#) across 12 wells. Data also was transformed to percent (%) of the average vehicle control value. Results were expressed as mean (±s.e.m.) of the transformed (% of vehicle control) data. Statistical analyses were performed on transformed percent of the average vehicle control data for each measure for each test article using one-way analysis of variance (Anova, StatView). Where applicable, Dunnett's test was used for multiple pairwise comparisons to the negative control (vehicle) condition. […] The level of significance was set at p value less than or equal to 0.05 (*p<0.05).

[1] = Rat brain monoamine and metabolite concentrations 1 week after cumulative SC dosing; details: for 5-HIAA mean brain concentration / 5-HT mean brain concentration: frontal cortex; for 5-HIAA mean brain concentration / 5-HT mean brain concentration / DA mean brain concentration / DOPAC mean brain concentration / HVA mean brain concentration: male rat; for DA mean brain concentration / DOPAC mean brain concentration / HVA mean brain concentration: striatum
[2] = Rat plasma pharmacokinetics after cumulative (QID) SC injections; details: for half-life: T1/2, male rat plasma
[3] = 10 μM, vs 0.1% sterile water vehicle
[4] = cumulative SC, 5 mg/kg/injection, 1 week after dosing
[5] = 1 week after 4 hourly SC injections of 2.5 mg/kg
[6] = 1 week after 4 hourly SC injections of 5 mg/kg
[7] = 1 week after 4 hourly SC injections of 5 mg/kg, 5 mg/kg
[8] = 1 week after 4 hourly SC injections of 10 mg/kg, N=2
[9] = 1 week after 4 hourly SC injections of 10 mg/kg, N=2, 10 mg/kg
[10] = male rat plasma, parent analyte, QID SC, total 10 mg/kg/day
[11] = male rat plasma, parent analyte, QID SC, total 20 mg/kg/day
[12] = cumulative SC, 5 mg/kg/injection, 1 week after dosing, 5 mg/kg
[13] = any tested concentration (0.001 to 10000 nM), vs vehicle
[14] = from 5 to 10 mg/kg/day S-MDMA, QID SC
[15] = from 5 to 20 mg/kg/day S-MDMA, QID SC
[16] = male rat plasma, parent analyte, QID SC, total 5 mg/kg/day
[17] = male rat plasma, metabolite S-MDA after QID SC S-MDMA, total 5 mg/kg/day
[18] = male rat plasma, metabolite after QID SC parent, total 10 mg/kg/day
[19] = male rat plasma, metabolite after QID SC parent, total 20 mg/kg/day

## CNC(C)Cc1ccc2c(c1)OCO2 (racemic) [Racemic MDMA, 3,4-methylenedioxymethamphetamine]
Serotonin 5-HT2B; 10 uM
  % inhibition of binding or activity: 85%
Cortical neurons; [3]
  neurite number (#): significantly increased
  neurite total length (μm): significantly increased
  total number of branch points (#): significantly increased
[1]; [4]
  frontal cortex 5-HT (serotonin) compared to vehicle: significantly reduced frontal cortex 5-HT concentrations
[1]; [5]
  5-HIAA mean brain concentration: 368.17 ng/g
  5-HT mean brain concentration: 183.90 ng/g
  DA mean brain concentration: 5956.67 ng/g
  DOPAC mean brain concentration: 1811.00 ng/g
  HVA mean brain concentration: 706.83 ng/g
[1]; [6]
  5-HIAA mean brain concentration: 234.63 ng/g
  DA mean brain concentration: 5190.63 ng/g
  HVA mean brain concentration: 577.00 ng/g
[1]; [7]
  5-HT mean brain concentration: 88.38 ng/g and 88.38 b** n* p* ng/g
  DOPAC mean brain concentration: 1962.75 ng/g and 1962.75 h** ng/g
[1]; [8]
  5-HIAA mean brain concentration: 235.00 ng/g
  5-HT mean brain concentration: 100.85 ng/g
  DA mean brain concentration: 7405.00 ng/g
[1]; [9]
  DOPAC mean brain concentration: 2015.00 ng/g and 2015.00 h* ng/g
  HVA mean brain concentration: 923.50 ng/g and 923.50 d**h* ng/g

## CNC(C)Cc1ccc2c(c1)OCO2 (single isomer, unassigned) [R-MDMA, R(−)-3,4-methylenedioxymethamphetamine]
Serotonin 5-HT2B; 10 uM, read-out: % inhibition of binding or activity
  inhibition at 10 µM: 79%
Serotonin 5-HT2B
  IC50: 1.4 µM
  Ki: 0.89 µM
Cortical neurons; 0.0001 μM, vs 0.1% sterile water vehicle
  neurite number (#): significantly increased
Cortical neurons; [3]
  neurite number (#): significantly increased
  neurite total length (μm): significantly increased
  total number of branch points (#): significantly increased
[2]
  AUC(0-t): 11800 ng·h/mL
[2]; dose increase from 10 to 20 mg/kg/day of the dosed test article, QID SC
  dose dependence of Cmax and AUC0-27 hr: approximately dose proportional manner
[2]; [10]
  AUC0-27 hr/Dose: 420 *kg*ng/mL/mg
  Cmax/Dose: 114 kg·ng/mL/mg
  Tlast: 11 h
[2]; [11]
  AUC0-27 hr/Dose: 590 *kg*ng/mL/mg
  Cmax/Dose: 127 kg·ng/mL/mg
  Tlast: 11 h
[2]; male, Sprague-Dawley (CD), rat, plasma, sc, 10 mg/kg/day, AUC0-27 hr, male rat plasma, parent analyte, QID SC, total 10 mg/kg/day
  AUC(0-t): 4200 ng·h/mL
[2]; male, Sprague-Dawley (CD), rat, plasma, sc, 10 mg/kg/day, AUCTlast, male rat plasma, parent analyte, QID SC, total 10 mg/kg/day
  AUC(0-t): 4160 ng·h/mL
[2]; male, Sprague-Dawley (CD), rat, plasma, sc, 10 mg/kg/day, Cmax, male rat plasma, parent analyte (total MDMA after Rac-MDMA), QID SC, total 10 mg/kg/day of the test article
  Cmax: 1140 ng/mL
[2]; male, Sprague-Dawley (CD), rat, plasma, sc, 10 mg/kg/day, parent analyte, QID SC, total 10 mg/kg/day
  half-life: 1.01 h
[2]; male, Sprague-Dawley (CD), rat, plasma, sc, 20 mg/kg/day, AUCTlast, male rat plasma, parent analyte, QID SC, total 20 mg/kg/day
  AUC(0-t): 11300 ng·h/mL
[2]; male, Sprague-Dawley (CD), rat, plasma, sc, 20 mg/kg/day, Cmax, male rat plasma, parent analyte (total MDMA after Rac-MDMA), QID SC, total 20 mg/kg/day of the test article
  Cmax: 2550 ng/mL
[1]; [4]
  striatal DA compared to the corresponding vehicle condition: significantly increased striatal DA
[1]; [12]
  frontal cortex 5-HT (serotonin) compared to vehicle: did not reduce serotonin content in the frontal cortex
[1]; cumulative SC, 10 mg/kg/injection, n=2, 1 week after dosing
  striatal HVA compared to the pooled vehicle condition: significantly reduced striatal HVA

## CNC(C)Cc1ccc2c(c1)OCO2 (single isomer, unassigned) [S-MDMA, S(+)-MDMA]
Serotonin 5-HT2B
  IC50: 12 µM
  Ki: 7.65 µM
Cortical neurons; [13]
  neurite number (#): did not significantly alter
  neurite total length (μm): did not significantly alter
  total number of branch points (#): did not significantly alter
[2]; [14]
  dose dependence of Cmax and AUC0-27 hr: approximately dose proportional manner
[2]; [15]
  dose dependence of Cmax and AUC0-27 hr: greater than dose proportional manner
[2]; male rat plasma, parent analyte (total MDMA after Rac-MDMA), QID SC, total 10 mg/kg/day of the test article
  Cmax: 1220 ng/mL
[2]; male rat plasma, parent analyte (total MDMA after Rac-MDMA), QID SC, total 20 mg/kg/day of the test article
  Cmax: 2560 ng/mL
[2]; [16]
  AUC0-27 hr/Dose: 302 *kg*ng/mL/mg
  Cmax/Dose: 89.3 kg·ng/mL/mg
  Tlast: 7 h
[2]; [10]
  AUC0-27 hr: 4130 ng·h/mL
  AUC0-27 hr/Dose: 413 *kg*ng/mL/mg
  AUCTlast: 4030 ng·h/mL
  Cmax/Dose: 122 kg·ng/mL/mg
  T1/2: 1.15 h
  Tlast: 11 h
[2]; male rat plasma, parent analyte, QID SC, total 10 mg/kg/day, time after 1st injection
  Tmax: 3.5 h
[2]; [11]
  AUC0-27 hr: 15000 ng·h/mL
  AUC0-27 hr/Dose: 748 *kg*ng/mL/mg
  AUCTlast: 15000 ng·h/mL
  Cmax/Dose: 128 kg·ng/mL/mg
  Tlast: 27 h
[2]; male, CD (Sprague Dawley), rat, plasma, sc, 5 mg/kg/day, AUC0-27 hr, male rat plasma, parent analyte, QID SC, total 5 mg/kg/day
  AUC(0-t): 1510 ng·h/mL
[2]; male, CD (Sprague Dawley), rat, plasma, sc, 5 mg/kg/day, AUCTlast, male rat plasma, parent analyte, QID SC, total 5 mg/kg/day
  AUC(0-t): 1490 ng·h/mL
[2]; male, CD (Sprague Dawley), rat, plasma, sc, 5 mg/kg/day, parent analyte, QID SC, total 5 mg/kg/day
  half-life: 0.754 h
[2]; male, CD (Sprague Dawley), rat, plasma, sc, 20 mg/kg/day, parent analyte, QID SC, total 20 mg/kg/day
  half-life: 3.17 h
[2]; male, Sprague-Dawley (CD), rat, plasma, sc, 5 mg/kg/day, Cmax, male rat plasma, parent analyte, QID SC, total 5 mg/kg/day of the test article
  Cmax: 447 ng/mL
[1]; [12]
  frontal cortex 5-HT (serotonin) compared to vehicle: significantly decreased frontal cortex 5-HT concentrations

## C[C@H](N)Cc1ccc2c(c1)OCO2 [S-MDA, S(+)-MDA]
Serotonin 5-HT2B; 10 uM
  % inhibition of binding or activity: 82%
Cortical neurons; [13]
  neurite number (#): did not significantly alter
  neurite total length (μm): did not significantly alter
  total number of branch points (#): did not significantly alter
[2]; [14]
  dose dependence of Cmax and AUC0-27 hr: approximately dose proportional manner
[2]; [15]
  dose dependence of Cmax and AUC0-27 hr: greater than dose proportional manner
[2]; [17]
  AUC0-27 hr: 1280 ng·h/mL
  AUC0-27 hr/Dose: 256 *kg*ng/mL/mg
  AUCTlast: 1270 ng·h/mL
  Cmax: 342 ng/mL
  Cmax/Dose: 68.4 kg·ng/mL/mg
  Tlast: 9 h
  Tmax: 4 h
[2]; male rat plasma, metabolite after QID SC parent (R-MDA after R-MDMA, S-MDA after S-MDMA, total MDA after Rac-MDMA), total 10 mg/kg/day
  Cmax: 957 ng/mL
[2]; male rat plasma, metabolite after QID SC parent (R-MDA after R-MDMA, S-MDA after S-MDMA, total MDA after Rac-MDMA), total 20 mg/kg/day
  Cmax: 2500 ng/mL
[2]; [18]
  AUC0-27 hr: 6770 ng·h/mL
  AUC0-27 hr/Dose: 677 *kg*ng/mL/mg
  AUCTlast: 5180 ng·h/mL
  Cmax/Dose: 95.7 kg·ng/mL/mg
  Tlast: 11 h
  Tmax: 5 h
[2]; [19]
  AUC0-27 hr: 26300 ng·h/mL
  AUC0-27 hr/Dose: 1320 *kg*ng/mL/mg
  AUCTlast: 26300 ng·h/mL
  Cmax/Dose: 125 kg·ng/mL/mg
  Tlast: 27 h
  Tmax: 5 h

— patent US20240082212A1, “USE OF MDMA FOR TREATMENT OF STRESS-RELATED DISORDERS” (priority 2022, published 2024)
